Measurements published in patent US6472391B2, “Nitrogen-containing heterocyclic compounds” (Millennium Pharmaceuticals, Inc., priority 1996, dated 2002).

Compound | melting point [°C]
Cc1ccc2c(N3CCN(C(=S)NCc4cccnc4)CC3)ncnc2c1.Cl.Cl | 180 to 183
COc1cc2ncnc(N3CCN(C(=O)Nc4ccc(C#N)nc4)CC3)c2cc1OC [Compound 273, N-(2-Cyano-5-pyridyl)-4-(6,7-dimethoxy-4-quinazolinyl)-1-piperazinecarboxamide] | 275 to 277
COc1cccc2c(N3CCN(C(=O)Nc4ccc(C(C)C)cc4)CC3)ncnc12 [Compound 326, N-(4-Isopropylphenyl)-4-(8-methoxy-4-quinazolinyl)-1-piperazinecarboxamide] | 102 to 104
CCn1c(=O)n(CC)c2cc3c(N4CCN(C(=O)Nc5ccc(Oc6ccccc6)cc5)CC4)nncc3cc21 [Compound 419, 4-(1,3-Diethyl-1,3-dihydro-2-oxo-2H-imidazo[4,5-g]phthalazin-5-yl)-N-(4-phenoxyphenyl)-1-piperazinecarboxamide] | 125 to 128
O=C(Nc1ccc([N+](=O)[O-])cc1)N1CCN(c2ncnc3ccccc23)CC1 [Compound 103, N-(4-Nitrophenyl)-4-(4-quinazolinyl)-1-piperazinecarboxamide] | 155 to 158
CCOc1cc2ncnc(N3CCN(C(=O)Nc4ccc(Oc5ccccc5)cc4)CC3)c2cc1OCC [Compound 106, 4-(6,7-Diethoxy-4-quinazolinyl)-N-(4-phenoxyphenyl)-1-piperazinecarboxamide] | 187 to 190
Cc1cccc2ncnc(N3CCN(C(=S)NCc4ccccc4)CC3)c12 [Compound 288, N-Benzyl-4-(5-methyl-4-quinazolinyl)-1-piperazinethiocarboxamide] | 165 to 167
O=C(Nc1ccc(Oc2ccccc2)cc1)N1CCN(c2ncnc3cc([N+](=O)[O-])ccc23)CC1 [Compound 322, 4-(7-Nitro-4-quinazolinyl)-N-(4-phenoxyphenyl)-1-piperazinecarboxamide] | 146 to 148
COc1cc2ncnc(N3CCN(C(=O)NS(=O)(=O)c4ccccc4)CC3)c2cc1OC [Compound 5, N-Benzenesulfonyl-4-(6,7-dimethoxy-4-quinazolinyl)-1-piperazinecarboxamide] | 98 to 100
COc1cc2ncnc(N3CCN(C(=O)NC(=O)c4ccccc4)CC3)c2cc1OC [Compound 4, N-Benzoyl-4-(6,7-dimethoxy-4-quinazolinyl)-1-piperazinecarboxamide] | 122 to 124
CC(=O)c1ccc(NC(=O)N2CCN(c3ncnc4c(Cl)cc(Cl)cc34)CC2)cc1 [Compound 378, N-(4-Acetylphenyl)-4-(6,8-dichloro-4-quinazolinyl)-1-piperazinecarboxamide] | 187 to 188
O=C(Nc1ccc(Oc2ccccc2)cc1)N1CCN(c2ncnc3c(I)cc(I)cc23)CC1 [Compound 380, 4-(6,8-Diiodo-4-quinazolinyl)-N-(4-phenoxyphenyl)-1-piperazinecarboxamide] | 242 to 244
COc1cc2ncnc(N3CCN(C(=O)Nc4ccc(Cl)c([N+](=O)[O-])c4)CC3)c2cc1OC [Compound 83, N-(4-Chloro-3-nitrophenyl)-4-(6,7-dimethoxy-4-quinazolinyl)-1-piperazinecarboxamide] | 253 to 255
COc1cc2nccc(N3CCN(C(=O)Nc4ccc(Oc5ccccc5)cc4)CC3)c2cc1OC [Compound 407, 4-(6,7-Dimethoxy-4-quinolyl)-N-(4-phenoxyphenyl)-1-piperazinecarboxamide] | 204 to 206
FC(F)(F)c1ccc2nccc(N3CCN(C(=S)NCc4ccccc4)CC3)c2c1 [Compound 398, N-Benzyl-4-(6-trifluoromethyl-4-quinolyl)-1-piperazinethiocarboxamide] | 158 to 159
CC(C)c1ccc(NC(=O)N2CCN(c3ncnc4c(Cl)cc(Cl)cc34)CC2)cc1 [Compound 376, 4-(6,8-Dichloro-4-quinazolinyl)-N-(4-isopropylphenyl)-1-piperazinecarboxamide] | 234 to 236

Next, values leading:

melting point [°C] | Compound
209 to 210 | COc1cc2ncnc(N3CCN(C(=O)Nc4ccc5[nH]ccc5c4)CC3)c2cc1OC [Compound 118, 4-(6,7-Dimethoxy-4-quinazolinyl)-N-(5-indolyl)-1-piperazinecarboxamide]
93 to 94 | COc1cc2ncnc(N3CCN(C(=S)NCC(c4ccccc4)c4ccccc4)CC3)c2cc1OC [Compound 11, 4-(6,7-Dimethoxy-4-quinazolinyl)-N-(2,2-diphenylethyl)-1-piperazinethiocarboxamide]
218 to 219 | COc1cc2ncnc(N3CCN(C(=O)Nc4cccc(C)c4)CC3)c2cc1OC [Compound 144, 4-(6,7-Dimethoxy-4-quinazolinyl)-N-(3-tolyl)-1-piperazinecarboxamide]
166 to 168 | COc1cc2ncnc(N3CCN(C(=S)NC(=O)c4ccc(Cl)cc4)CC3)c2cc1OC [Compound 179, N-(4-Chlorobenzoyl)-4-(6,7-dimethoxy-4-quinazolinyl)-1-piperazinethiocarboxamide]
171 to 173 | CCCCc1ccc(NC(=S)N2CCN(c3ncnc4cc(OC)c(OC)cc34)CC2)cc1 [Compound 21, N-(4-Butylphenyl)-4-(6,7-dimethoxy-4-quinazolinyl)-1-piperazinethiocarboxamide]
221 to 223 | COc1ccc(NC(=O)N2CCN(c3ncnc4cc(OC)c(OC)cc34)CC2)cc1 [Compound 56, 4-(6,7-Dimethoxy-4-quinazolinyl)-N-(4-methoxyphenyl)-1-piperazinecarboxamide]
178 to 179 | COc1cc2ncnc(N3CCN(C(=S)NCc4ccc(C(C)C)cc4)CC3)c2cc1OC [Compound 154, 4-(6,7-Dimethoxy-4-quinazolinyl)-N-(4-isopropylbenzyl)-1-piperazinethiocarboxamide]
164 to 165 | COc1cc2ncnc(N3CCN(C(=S)NCc4cccc5ccccc45)CC3)c2cc1OC [Compound 132, 4-(6,7-Dimethoxy-4-quinazolinyl)-N-(1-naphthylmethyl)-1-piperazinethiocarboxamide]
122 to 123 | COc1cc2ncnc(N3CCN(C(=O)Nc4ccc(CN5CCCCC5)cc4)CC3)c2cc1OC [Compound 100, 4-(6,7-Dimethoxy-4-quinazolinyl)-N-[4-(piperidinomethyl)phenyl]-1-piperazinecarboxamide]
242 to 243 | COc1cc2ncnc(N3CCN(C(=S)Nc4ccc(Oc5ccccc5)cc4)CC3)c2cc1OC [Compound 61, 4-(6,7-Dimethoxy-4-quinazolinyl)-N-(4-phenoxyphenyl)-1-piperazinethiocarboxamide]
204 to 205 | COc1cc2ncnc(N3CCN(C(=O)Nc4ccc(OC(F)(F)F)cc4)CC3)c2cc1OC [Compound 59, 4-(6,7-Dimethoxy-4-quinazolinyl)-N-[4-(trifluoromethoxy)phenyl]-1-piperazinecarboxamide]
205 to 208 | COc1cc2ncnc(N3CCN(C(=O)Nc4cccc(I)c4)CC3)c2cc1OC [Compound 186, 4-(6,7-Dimethoxy-4-quinazolinyl)-N-(3-iodophenyl)-1-piperazinecarboxamide]
211 to 212 | COc1cc2ncnc(N3CCN(C(=O)NCc4ccc(Br)cc4)CC3)c2cc1OC [Compound 184, N-(4-Bromobenzyl)-4-(6,7-dimethoxy-4-quinazolinyl)-1-piperazinecarboxamide]
